In this assay the test system is rat lacrimal secretion. As to the kind of experiment: Rat lacrimal secretion in vivo, Schirmer test paper, after intravenous administration of PAR-associated peptides. Particulars: male Wistar rat. As for the experimental part:
An amount of lacrimal fluid may be measured according to the known method such as a method of Iga et al. using a rat (Iga, Y. et al., Jpn. J. Pharmacol., 78, 373-80, 1998). In particular, a rat is anesthetized with pentobarbital (50 mg/kg, intraabdominal administration), and a paper with 2 mm width for testing the human lacrimal secretion function, the Schirmer test paper (Showa Yakuhin Kako Co., Ltd.) is inserted into a lower eyelid of the rat. After a period of time fixed has passed, the test paper is removed, and a length of the wetted portion of the test paper is measured using a caliper square.
Male Wistar-line rat at 6 weeks of age was used in experiments. Each animal was housed for one week under the environment of room temperature of 23±2° C., a humidity of 50±5% and a 12 hours light/dark cycle (light: 07:00-19:00) and, thereafter, it was subjected to experiments. During the housing and experiment period, the animal was fed a solid chow and water ad lib.
Four animals were used in Examples 3-4, and the results thereof are shown in the mean±S.E.M. The test of significance was performed according to a Tukey's multiple comparison test.
An amount of rat lacrimal fluid was measured according to the method of Iga et al. (Iga, Y. et al., Jpn. J. Pharmacol., 78, 373-80, 1998). That is, the rat was anesthetized with pentobarbital (50 mg/kg, intraabdominal administration), and a paper with 2 mm width for testing human lacrimal secretion function, the Schirmer test paper (Showa Yakuhin Kako Co., Ltd.) was inserted into a lower eyelid of the rat. After the period of time fixed has passed, the test paper was removed, and a length of a wetted portion of the test paper was measured using a caliper square. An amount of lacrimal fluid was measured at 1, 2, 4, 6, 8 and 10 minutes after intravenous administration of a solvent or PAR-associated peptides.
An amount of lacrimal fluid was measured as described in Example 3.

[1] abbreviates: 5 μmol/kg intravenously, peptide alone, Example 3 (FIG. 1).

Where no end group is shown, it is not given here.

Experimental findings from patent US7348306B2, “Composition for promoting lacrimal secretion” (Fuso Pharmaceutical Industries, Ltd., priority 1999, dated 2008) are described below.

As for “Leu-Arg-Gly-Ile-Leu-Ser-NH2 (LRGILS-NH2) [LRp-NH2, designed control peptide, C-terminal amidated, reference compound]”, the “effect on rat lacrimal secretion” value (5 μmol/kg intravenously, Example 4 (FIG. 2), vs solvent-administrated group) is listed as “no effect”.
Take “Ser-Leu-Ile-Gly-Arg-Leu-NH2 (SLIGRL-NH2) [SLp-NH2]”: under setting [1], the “effect on lacrimal secretion (length of wetted portion of Schirmer test paper)” value is reported as “significant promotion of lacrimal secretion” and the “time of peak of lacrimal secretion promotion after intravenous administration” value was determined as 1 min. The “dose-dependency of rat lacrimal secretion promoting action” value (1 to 5 μmol/kg intravenously, Example 4 (FIG. 2), vs solvent) is recorded as “promoted the rat lacrimal secretion in doses of ranging from 1 to 5 μmol/kg in a dose-dependent manner”. In addition, for the setting “SLp-NH2 5 μmol/kg i.v. with amastatine 2.5 μmol/kg i.v. 1 minute before, P<0.01 vs SLp-NH2 (Tukey test)”, the “lacrimal secretion 8 and 10 minutes after combined treatment with amastatine, as compared with SLp-NH2 alone” value is reported as “significant promotion of lacrimal secretion”. The “persistence of lacrimal secretion promoting action in combined treatment with amastatine” value (SLp-NH2 5 μmol/kg i.v. with amastatine 2.5 μmol/kg i.v. 1 minute before, compared with SLp-NH2 alone) is reported as “more persistent than that of SLp-NH2 alone”.
